According to US9504729B2, “Antiangiogenic small molecules and methods of use” (The United States of America, as represented by the …, priority 2009, dated 2016):
Where a name gives a salt, the structure may show the parent alone. Read-outs that look alike come from different tables or passages of the source.

Key:
PAE cells [1] = tested on: PAE cells
PAE cells [2] = experiment: Growth dose response (IC50) in PAE; format: cell-based, porcine; details: read-out: Growth IC50 (M) in PAE
From the text: FIG. 6: Dose response curves were constructed for all the SMs of interest using PAE cells. Data were fitted to non-linear sigmoid curves using GraphPad Prism (GraphPad Software, Inc., La Jolla, Calif.).
Dose response curves were constructed for all the SM of interest using PAE cells. Data were fitted to non-linear sigmoid curves using GraphPad Prism (GraphPad software, Inc.).

PAE = experiment: Apoptosis in PAE; format: cell-based, porcine
endothelial cells = experiment: Primary screening: cell-based growth HTS and tube formation HTS (bioactivity class)
Procedure: All assays were performed in clear bottom black 96-well plates. The plates were always arranged to include a column for negative controls (column 1), a column for positive controls (column 12), and 10 columns for evaluation of 80 compounds. In order to increase stringency and avoid false positives in the HTS assays, all compounds were tested at a low final concentration of 1 μM.
In summary, 1,000 cells/well were seeded in the 96-well plates described above. Cells in columns 2-12 were seeded in 10% FBS and cells in column 1 (negative control) were seeded in 0% FBS. Small molecules (80 per plate) were added in columns 2-11 at a final concentration of 1 μM (both positive and negative controls were exposed to the same percentage of DMSO in wells containing test compounds). The fluorescence emitted by every well was measured spectrophotometrically (Infinite M200, TECAN®, Mannedorf, Switzerland) every 24 hours for 5-7 days.
In summary, 20,000 cells/well were seeded on top of 50 μl of pre-gelled GELTREX® gel matrix (Invitrogen, Carlsbad, Calif.). All cells were seeded in 10% FBS. […] Small molecules (80 per plate) were added to columns 2-11 at a final concentration of 1 μM (both positive and negative controls were exposed to the same percentage of DMSO in wells containing test compounds). Plates were incubated for 5-7 hours and automatically imaged with the help of an epifluorescence microscope (Axiovert® 200M, Zeiss) equipped with a motorized stage and AxioVision® (Zeiss) software.
For hit detection, a stringent threshold (sigma 3.5) was applied to avoid false positives.

PAE cells [3] = experiment: Fluorescence-release cytotoxicity assay; details: endothelial cells
in vitro = details: pig
KDR(VEGFR2) = KDR(VEGFR2) (Homo sapiens, UniProt P35968); experiment: SelectScreen kinase activity profiling, KDR(VEGFR2); format: biochemical; details: VEGFR2 receptor
Sequence of KDR(VEGFR2) (P35968 20-1356): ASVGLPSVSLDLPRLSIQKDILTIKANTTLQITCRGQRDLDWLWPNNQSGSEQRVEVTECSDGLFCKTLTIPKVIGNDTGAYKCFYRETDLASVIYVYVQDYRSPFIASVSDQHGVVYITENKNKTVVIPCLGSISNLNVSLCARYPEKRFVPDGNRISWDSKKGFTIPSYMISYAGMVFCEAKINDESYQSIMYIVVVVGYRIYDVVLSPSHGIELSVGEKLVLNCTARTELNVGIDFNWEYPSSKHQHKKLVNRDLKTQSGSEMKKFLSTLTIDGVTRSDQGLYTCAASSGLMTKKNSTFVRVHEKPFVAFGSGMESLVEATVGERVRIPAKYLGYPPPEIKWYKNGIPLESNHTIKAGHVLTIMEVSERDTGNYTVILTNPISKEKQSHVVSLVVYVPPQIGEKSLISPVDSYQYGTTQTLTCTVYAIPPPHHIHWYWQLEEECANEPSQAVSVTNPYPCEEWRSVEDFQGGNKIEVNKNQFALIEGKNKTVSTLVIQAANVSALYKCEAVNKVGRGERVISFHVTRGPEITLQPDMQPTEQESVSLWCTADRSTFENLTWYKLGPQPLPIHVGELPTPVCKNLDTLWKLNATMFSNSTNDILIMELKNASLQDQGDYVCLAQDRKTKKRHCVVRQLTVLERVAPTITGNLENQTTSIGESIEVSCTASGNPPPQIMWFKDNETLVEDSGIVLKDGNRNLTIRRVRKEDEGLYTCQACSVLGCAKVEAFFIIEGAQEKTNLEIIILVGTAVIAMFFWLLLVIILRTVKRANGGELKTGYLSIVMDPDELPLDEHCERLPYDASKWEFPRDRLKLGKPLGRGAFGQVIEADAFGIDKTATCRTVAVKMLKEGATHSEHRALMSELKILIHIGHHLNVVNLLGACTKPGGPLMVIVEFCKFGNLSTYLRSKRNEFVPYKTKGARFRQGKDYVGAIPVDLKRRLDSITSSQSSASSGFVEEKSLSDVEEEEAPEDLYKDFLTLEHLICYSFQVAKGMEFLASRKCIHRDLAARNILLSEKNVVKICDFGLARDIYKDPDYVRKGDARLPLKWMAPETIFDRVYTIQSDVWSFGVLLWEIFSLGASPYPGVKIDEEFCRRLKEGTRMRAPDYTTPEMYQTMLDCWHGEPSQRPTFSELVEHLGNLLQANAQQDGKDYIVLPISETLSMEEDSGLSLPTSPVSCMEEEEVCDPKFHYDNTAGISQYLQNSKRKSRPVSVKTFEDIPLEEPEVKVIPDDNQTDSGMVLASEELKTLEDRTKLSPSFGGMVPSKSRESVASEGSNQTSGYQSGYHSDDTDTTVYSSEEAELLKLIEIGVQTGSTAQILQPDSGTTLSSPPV
From the text: To characterize the RTK inhibitory activity of the antiangiogenic SMs described herein, 36 compounds were chosen and screened using Invitrogen's SelectScreen® kinase activity profiling service (described on-line at tools.invitrogen.com/content.cfm?pageid=10413#selection). VEGFR1 and FGFR2 RTK inhibitory activities were studied. […] Overall, a small minority of the SMs tested had any substantial kinase inhibitory activity. This observation supports a mechanism of antiangiogenic action other than RTK inhibition for most of the SMs described herein.

[4] = HTS at 1 μM final concentration

2,5-dibromo-3,6-dimethylbenzene-1,4- diol; 2,5-dibromo-3,6- dimethylcyclohexa-2,5-diene-1,4-dione [Compound 72]
Cytotoxicity (%) (PAE cells [1]): 13.88%
IC50 (PAE cells [2]): 1.39e-10 M
Apoptosis PAE (RFU) (PAE): 1.368 RFU
Bioactivity (endothelial cells): 3

3-[(2,4- dimethylphenyl)carbamoyl]naphthalen-2- olate; N-(2,4-dimethylphenyl)-3- hydroxynaphthalene-2-carboxamide; nickel(2+) [Compound 37]
IC50 (PAE cells [2]): > 1e-06 M
Apoptosis PAE (RFU) (PAE): 2.037 RFU
Bioactivity (endothelial cells): 1

CC1(C)N=C(N)N=C(N)N1CCCCc1ccccc1.Cl [Compound 11, 6,6-dimethyl-1-(4-phenylbutyl)-1,3,5-triazine-2,4-diamine hydrochloride]
IC50 (PAE cells [2]; Sus scrofa, PAE cells): 2.37e-11 M
cytotoxicity (in words) (PAE cells [3]): cytotoxic
cytotoxicity (in vitro): 18.7%

CC1(C)N=C(N)N=C(N)N1c1cccc(OCc2cccc([N+](=O)[O-])c2)c1 [Compound 23, 6,6-dimethyl-1-[3-[(3-nitrophenyl)methoxy]-phenyl]-1,3,5-triazine-2,4-diamine chloride]
IC50 (PAE cells [2]; Sus scrofa, PAE cells): 1.21e-09 M
cytotoxicity (in vitro): 7.02%

CCCC(c1cc(C(C)(C)C)c(O)cc1C)c1cc(C(C)(C)C)c(O)cc1C [Compound 24, 2-tert-butyl-4-[1-(5-tert-butyl-4-hydroxy-2-methylphenyl)butyl]-5-methylphenol]
IC50 (PAE cells [2]; Sus scrofa, PAE cells): > 1e-06 M
cytotoxicity (in vitro): 8.54%

Oc1ccc(Cl)cc1Cc1cc(Cl)cc(Cc2cc(Cl)ccc2O)c1O [Compound 25, 4-chloro-2,6-bis[(5-chloro-2-hydroxyphenyl)methyl]phenol]
IC50 (PAE cells [2]; Sus scrofa, PAE cells): 2.27e-10 M
cytotoxicity (in vitro): 9.57%

CN(C)CCC(=O)[C@@]1(O)CC[C@H]2[C@@H]3CC=C4C[C@@H](O)CC[C@]4(C)[C@H]3CC[C@@]21C [Compound 27, 1-[(3S,8R,9S,10R,13S,14S,17R)-3,17-dihydroxy-10,13-dimethyl-1,2,3,4,7,8,9,11,12,14,15,16-dodecahydrocyclopenta[a]phenanthren-17-yl]-3-(dimethylamino)propan-1-one chloride]
IC50 (PAE cells [2]; Sus scrofa, PAE cells): > 1e-06 M
cytotoxicity (in vitro): 7.9%

Nc1nc(N)c(-c2cccc(C(F)(F)F)c2)c(Cc2cccc(C(F)(F)F)c2)n1 [Compound 28, 5-[3-(trifluoromethyl)phenyl]-6-[[3-(trifluoromethyl)phenyl]methyl] pyrimidine-2,4-diamine]
IC50 (PAE cells [2]; Sus scrofa, PAE cells): 7.41e-11 M
cytotoxicity (in vitro): 8.65%

O=C(c1ccc([N+](=O)[O-])cc1)C(Br)C(Br)c1ccnc2ccccc12 (stereo not drawn) [Compound 29, 2,3-dibromo-1-(4-nitrophenyl)-3-quinolin-4-ylpropan-1-one]
IC50 (PAE cells [2]; Sus scrofa, PAE cells): > 1e-06 M
cytotoxicity (in vitro): 9.78%

Cc1c2cc[n+](CCN3CCCCC3)cc2c(C)c2c1[nH]c1ccc(O)cc12 [Compound 30, 5,11-dimethyl-2-(2-piperidin-1-ylethyl)-6H-pyrido[4,3-b]carbazol-2-ium-9-ol acetate]
IC50 (PAE cells [2]; Sus scrofa, PAE): 9.27e-10 M
cytotoxicity (in vitro): 8.81%

CC(=O)O/C(=C1\C[C@H]2[C@@H]3CC=C4C[C@@H](OC(C)=O)CC[C@]4(C)[C@H]3CC[C@]2(C)C1=O)C(F)(F)F [Compound 31, [(3S,8R,9S,10R,13S,14S,16E)-16-(1-acetyloxy-2,2,2-trifluoroethylidene)-10,13-dimethyl-17-oxo-2,3,4,7,8,9,11,12,14,15-decahydro-1H-cyclopenta[a]phenanthren-3-yl]acetate]
IC50 (PAE cells [2]; Sus scrofa, PAE cells): 0.000506 M
cytotoxicity (in vitro): 7.62%

CS(=O)(=O)Nc1ccc(Nc2c3ccccc3nc3ccccc23)cc1 [Compound 32, N-[4-(acridin-9-ylamino)phenyl]-methanesulfonamide; methanesulfonic acid]
IC50 (PAE cells [2]; Sus scrofa, PAE cells): > 1e-06 M
cytotoxicity (in vitro): 6.82%

Cc1cc(Cc2cc(C)cc(C(C)(C)C)c2O)c(O)c(Cc2cc(C)cc(C(C)(C)C)c2O)c1 [Compound 33, 2-tert-butyl-6-[[3-[(3-tert-butyl-2-hydroxy-5-methylphenyl)methyl]-2-hydroxy-5-methylphenyl]methyl]-4-methylphenol]
IC50 (PAE cells [2]; Sus scrofa, PAE cells): 2.8e-10 M
cytotoxicity (in vitro): 7.44%

CCC1(OC(=O)CN)C(=O)OCc2c1cc1n(c2=O)Cc2cc3ccccc3nc2-1 (stereo not drawn) [Compound 34, 4-Ethyl-3,14-dioxo-3,4,12,14-tetrahydro-1H-pyrano[3′,4′:6,7]indolizino[1,2-b]quinolin-4-yl aminoacetate hydrochloride]
IC50 (PAE cells [2]; Sus scrofa, PAE): 9.92e-12 M
cytotoxicity (in vitro): 10.2%

COc1cccc2c(O)c3c(c(N)c12)C(=O)C1=C(C[C@@](O)(C(C)=O)C[C@@H]1OC1CC(N)C(O)C(C)O1)C3=O (stereo partly drawn) [Compound 35, (1S,3S)-3-acetyl-11-amino-1-(4-amino-5-hydroxy-6-methyloxan-2-yl)oxy-3,6-dihydroxy-10-methoxy-2,4-dihydro-1H-tetracene-5,12-dione hydrochloride]
IC50 (PAE cells [2]; Sus scrofa, PAE cells): 2.41e-11 M
cytotoxicity (in vitro): 7.98%

CCC(=O)OCN1C(=O)C=CC1=O [Compound 39, (2,5-dioxopyrrol-1-yl)methyl propanoate]
RTK inhibitory activity (in words) (KDR(VEGFR2)): showed RTK inhibitory activity
cytotoxicity (in vitro): 8.54%
type of inhibition (endothelial cell growth and/or tube formation) (endothelial cells; 1 μM): tube formation

COc1cc2cc(c1Cl)N(C)C(=O)CC(OC(=O)C(C)C)C1(C)OC1C(C)C1CC(O)(NC(=O)O1)C(OC)/C=C/C=C(\C)C2 (stereo not drawn) [Compound 56, Maytansinol isobutyrate or 4,24-Dioxa-9,22-diazatetracyclo[19.3.1.110,14.03,5] hexacosane, maytansine deriv.]
cytotoxicity (in vitro): 7.52%
type of inhibition (endothelial cell growth and/or tube formation) (endothelial cells): tube formation

COc1ccc(CC2C(=O)NC(C)C(=O)N(C)C3C(=O)N(C)C(Cc4ccc(O)c(c4)Oc4ccc(cc4)C3O)C(=O)NC(C)C(=O)NC(C)C(=O)N2C)cc1 (stereo not drawn) [Compound 59, Bouvardin or 17,24-dihydroxy-10-(4-methoxybenzyl)-4,7,9,13,15,29-hexamethyl-22-oxa-3,6,9,12,15,29-hexaazatetracyclo-[14.12.2.2-18,21~.1~23,27~]tritriaconta-18,20,23(31),24,26,32-hexaene-2,5,8,11,14,30-hexone]
Cytotoxicity (%) (PAE cells [1]): 9.794%
Apoptosis PAE (RFU) (PAE): 6.215 RFU
Bioactivity (endothelial cells): 2

COc1ccc(-c2csc3c2-n2cccc2C3=O)cc1 [Compound 63, 3-(4-methoxyphenyl)thieno[2,3-b]pyrrolizin-8-one]
IC50 (PAE cells [2]; Sus scrofa, PAE cells): 1.55e-11 M
cytotoxicity (in words) (PAE cells [3]): without cytotoxicity
cytotoxicity (in vitro): 7.48%
type of inhibition (endothelial cell growth and/or tube formation) (endothelial cells; 1 μM): inhibited both endothelial cell growth and tube formation

O=[N+]([O-])c1ccc(S(=O)(=O)Cc2ccccc2)c([N+](=O)[O-])c1 [Compound 64, 1-benzylsulfonyl-2,4-dinitrobenzene]
cytotoxicity (in words) (PAE cells [1]): without cytotoxicity
IC50 (PAE cells [2]; Sus scrofa, PAE cells): 2.79e-10 M
cytotoxicity (in vitro): 7.09%
type of inhibition (endothelial cell growth and/or tube formation) (endothelial cells; 1 μM): inhibited both endothelial cell growth and tube formation
type of inhibition (endothelial cell growth and/or tube formation) (endothelial cells; 1 μM, listed as NSC 122657): tube formation+growth

OC(c1cc(-c2ccccc2)nc2c1ccc1ccccc12)C1CCCCN1 (stereo not drawn) [Compound 66, (2-phenylbenzo[h]quinolin-4-yl)-piperidin-2-ylmethanol]
IC50 (PAE cells [2]; Sus scrofa, PAE cells): 4.12e-10 M
cytotoxicity (in vitro): 13.1%

O=C(c1no[n+]([O-])c1C(=O)c1csc2ccccc12)c1csc2ccccc12 [Compound 68, [4-(1-benzothiophene-3-carbonyl)-2-oxido-1,2,5-oxadiazol-2-ium-3-yl]-(1-benzothiophen-3-yl)methanone]
IC50 (PAE cells [2]; Sus scrofa, PAE cells): 1.4e-10 M
cytotoxicity (in words) (PAE cells [3]): cytotoxic
cytotoxicity (in vitro): 19.1%

[benzylsulfanyl(sulfoniumylidene) methyl]-(1-pyridin-2- ylethylideneamino)azanide; chlorocopper [Compound 65]
IC50 (PAE cells [2]; PAE cells): 1.09e-11 M
Apoptosis PAE (RFU) (PAE; PAE cells): 2.227 RFU
Bioactivity (endothelial cells; [4]): 3

azidobenzene; 1H-indene; prop-1-en-2- ylbenzene [Compound 49]
Apoptosis PAE (RFU) (PAE): 1.235 RFU
Bioactivity (endothelial cells): 2

bromocopper; (dipyridin-2- ylmethylideneamino)- [methylsulfanyl(sulfoniumylidene) methyl]azanide [Compound 70]
Cytotoxicity (%) (PAE cells [1]): 38.53%
IC50 (PAE cells [2]; PAE cells): 6.11e-12 M
Apoptosis PAE (RFU) (PAE; PAE cells): 1.021 RFU
cytotoxicity (in words) (PAE cells [3]): cytotoxic
Bioactivity (endothelial cells; [4]): 3

zinc; 8-hydroxy-3,4,4a,5,6,7,8,8a- octahydro-2H-quinolin-1-ide-5-sulfonic acid; 5-sulfo-1,2-dihydroquinolin-8-olate [Compound 61]
Cytotoxicity (%) (PAE cells [1]): 7.901%
Apoptosis PAE (RFU) (PAE): 1.841 RFU
Bioactivity (endothelial cells): 2
